In US20250145594A1, “MODULATORS OF THE INTEGRATED STRESS PATHWAY” (Calico Life Sciences LLC, priority 2020, published 2025):
pEC50: −log10 of the molar value.

System: ATF4 luciferase reporter in HEK293T cells
Assay: ATF4-Luc assay (in vitro model of VWMD)
Assay type: cell-based, human
Settings: Homo sapiens, HEK-293T, 7 h, HEK293T cells carrying the ATF4 luciferase reporter, 1 μg/mL tunicamycin, One Glo luminescence
In short: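 Tunicamycin (1 μg/mL) stress with co-added compound for 7 hours in HEK293T cells stably carrying an ATF4 5′-UTR–luciferase reporter. EC50 values come from the luminescent signal (One Glo).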

Structure (SMILES)	pEC50
O=C(COc1ccc(Cl)c(F)c1)NC12CCC(n3cc(C(=O)N4CC[C@H](OC(F)(F)F)C4)cn3)(CC1)CC2 [Compound 624, 2-(4-chloro-3-fluorophenoxy)-N-(4-{4-[(3S)-3-(trifluoromethoxy)pyrrolidine-1-carbonyl]-1H-pyrazol-1-yl}bicyclo[2.2.2]octan-1-yl)acetamide]	> 8.00
O=C(NC12CC(c3ccnc(OCCOC(F)(F)F)n3)(C1)C2)[C@H]1C[C@@H](O)c2cc(C(F)(F)F)c(F)cc2O1 [Compound 593, (2R,4R)-7-fluoro-4-hydroxy-N-(3-{2-[2-(trifluoromethoxy)ethoxy]pyrimidin-4-yl}bicyclo[1.1.1]pentan-1-yl)-6-(trifluoromethyl)-3,4-dihydro-2H-1-benzopyran-2-carboxamide]	7.30 to 8.00
O=C(NC12CC(n3cc(-c4ccc(OC(F)(F)F)cn4)cn3)(C1)C2)[C@H]1C[C@@H](O)c2cc(Cl)c(Cl)cc2O1 [Compound 566, (2R,4R)-6,7-dichloro-4-hydroxy-N-(3-{4-[5-(trifluoromethoxy)pyridin-2-yl]-1H-pyrazol-1-yl}bicyclo[1.1.1]pentan-1-yl)-3,4-dihydro-2H-1-benzopyran-2-carboxamide]	> 8.00
COc1ccc2nn(C34CC(NC(=O)[C@H]5C[C@@H](O)c6cc(C(F)(F)F)c(F)cc6O5)(C3)C4)cc2n1 (racemic) [Compound 655, rac-(2R,4R)-7-fluoro-4-hydroxy-N-[3-(5-methoxy-2H-pyrazolo[4,3-b]pyridin-2-yl)bicyclo[1.1.1]pentan-1-yl]-6-(trifluoromethyl)-3,4-dihydro-2H-1-benzopyran-2-carboxamide]	> 8.00
O=C(NC12CC(n3cc(C(=O)N4CC[C@@H](OC(F)F)C4)cn3)(C1)C2)[C@H]1C[C@@H](O)c2cc(Cl)ccc2O1 [Compound 399, (2R,4R)-6-chloro-N-(3-{4-[(3R)-3-(difluoromethoxy)pyrrolidine-1-carbonyl]-1H-pyrazol-1-yl}bicyclo[1.1.1]pentan-1-yl)-4-hydroxy-3,4-dihydro-2H-1-benzopyran-2-carboxamide]	6.30 to 6.60
O=C(NC12CC(n3cc(OCCOC(F)(F)F)cn3)(C1)C2)[C@H]1C[C@H](O)c2cc(Cl)ccc2O1 [Compound 632, (2R,4S)-6-chloro-4-hydroxy-N-(3-{4-[2-(trifluoromethoxy)ethoxy]-1H-pyrazol-1-yl}bicyclo[1.1.1]pentan-1-yl)-3,4-dihydro-2H-1-benzopyran-2-carboxamide]	7.30 to 8.00
O=C(COc1ccc(Cl)c(F)c1)NC12CC(c3ccc(C(=O)N4CCC(C(F)(F)F)C4)nc3)(C1)C2 (stereo not shown) [Compound 619, 2-(4-chloro-3-fluorophenoxy)-N-(3-{6-[3-(trifluoromethyl)pyrrolidine-1-carbonyl]pyridin-3-yl}bicyclo[1.1.1]pentan-1-yl)acetamide]	7.30 to 8.00
O=C(NC12CC(n3cc(-c4ccc(OC(F)(F)F)c(F)c4)cn3)(C1)C2)[C@H]1C[C@@H](O)c2cc(Cl)ccc2O1 [Compound 312, (2R,4R)-6-chloro-N-(3-{4-[3-fluoro-4-(trifluoromethoxy)phenyl]-1H-pyrazol-1-yl}bicyclo[1.1.1]pentan-1-yl)-4-hydroxy-3,4-dihydro-2H-1-benzopyran-2-carboxamide]	> 8.00
O=C(NC12CC(n3cc(-c4ccc(OC(F)(F)F)cn4)cn3)(C1)C2)[C@H]1C[C@H](O)c2cc(Cl)ccc2O1 [Compound 545, (2R,4S)-6-chloro-4-hydroxy-N-(3-{4-[5-(trifluoromethoxy)pyridin-2-yl]-1H-pyrazol-1-yl}bicyclo[1.1.1]pentan-1-yl)-3,4-dihydro-2H-1-benzopyran-2-carboxamide]	> 8.00
O=C(NC12CC(n3cc(OCCOC(F)(F)F)cn3)(C1)C2)[C@H]1CNc2cc(Cl)ccc2O1 [Compound 518, (2R)-6-chloro-N-(3-{4-[2-(trifluoromethoxy)ethoxy]-1H-pyrazol-1-yl}bicyclo[1.1.1]pentan-1-yl)-3,4-dihydro-2H-1,4-benzoxazine-2-carboxamide]	7.30 to 8.00
COc1ccc2cn(C34CC(NC(=O)[C@H]5C[C@@H](O)c6cc(Cl)ccc6O5)(C3)C4)nc2c1 [Compound 500, (2R,4R)-6-chloro-4-hydroxy-N-[3-(6-methoxy-2H-indazol-2-yl)bicyclo[1.1.1]pentan-1-yl]-3,4-dihydro-2H-1-benzopyran-2-carboxamide]	7.30 to 8.00
O=C(NC12CC(n3cc(C(=O)N4CCC(C(F)(F)F)C4)cn3)(C1)C2)[C@H]1C[C@@H](O)c2cc(Cl)ccc2O1 (stereo partly drawn) [Compound 535, (2R,4R)-6-chloro-4-hydroxy-N-(3-{4-[3-(trifluoromethyl)pyrrolidine-1-carbonyl]-1H-pyrazol-1-yl}bicyclo[1.1.1]pentan-1-yl)-3,4-dihydro-2H-1-benzopyran-2-carboxamide]	7.30 to 8.00
O=C(NC12CC(n3cc(C4CC(OC(F)(F)F)C4)nn3)(C1)C2)[C@H]1C[C@@H](O)c2cc(C(F)(F)F)ccc2O1 (stereo partly drawn) [Compound 470, (2R,4R)-4-hydroxy-N-(3-{4-[(1s,3S)-3-(trifluoromethoxy)cyclobutyl]-1H-1,2,3-triazol-1-yl}bicyclo[1.1.1]pentan-1-yl)-6-(trifluoromethyl)-3,4-dihydro-2H-1-benzopyran-2-carboxamide]	> 8.00
O=C(NC12CC(n3cc([C@H]4C[C@@H](OC(F)(F)F)C4)cn3)(C1)C2)[C@H]1C[C@@H](O)c2cc(Cl)ccc2O1 [Compound 330, (2R,4R)-6-chloro-4-hydroxy-N-(3-{4-[cis-3-(trifluoromethoxy)cyclobutyl]-1H-pyrazol-1-yl}bicyclo[1.1.1]pentan-1-yl)-3,4-dihydro-2H-1-benzopyran-2-carboxamide]	> 8.00
O=C(NC12CC(n3cc(OCCOC(F)(F)F)nn3)(C1)C2)[C@H]1C[C@@H](O)c2cc(Cl)ccc2O1 [Compound 487, (2R,4R)-6-chloro-4-hydroxy-N-(3-{4-[2-(trifluoromethoxy)ethoxy]-1H-1,2,3-triazol-1-yl}bicyclo[1.1.1]pentan-1-yl)-3,4-dihydro-2H-1-benzopyran-2-carboxamide]	> 8.00
COc1cc2cn(C34CC(NC(=O)[C@H]5C[C@@H](O)c6cc(Cl)ccc6O5)(C3)C4)nc2cn1 [Compound 497, (2R,4R)-6-chloro-4-hydroxy-N-[3-(5-methoxy-2H-pyrazolo[3,4-c]pyridin-2-yl)bicyclo[1.1.1]pentan-1-yl]-3,4-dihydro-2H-1-benzopyran-2-carboxamide]	7.30 to 8.00
O=C(NC12CC(n3cc(-c4ccc(OC(F)F)cn4)cn3)(C1)C2)[C@H]1C[C@@H](O)c2cc(Cl)ccc2O1 [Compound 575, (2R,4R)-6-chloro-N-(3-{4-[5-(difluoromethoxy)pyridin-2-yl]-1H-pyrazol-1-yl}bicyclo[1.1.1]pentan-1-yl)-4-hydroxy-3,4-dihydro-2H-1-benzopyran-2-carboxamide]	> 8.00
O=C(CO[C@H]1C[C@@H](OC(F)(F)F)C1)NC12CC(NC(=O)[C@H]3C[C@@H](O)c4cc(C(F)(F)F)c(F)cc4O3)(C1)C2 [Compound 644, (2R,4R)-7-fluoro-4-hydroxy-N-[3-(2-{[(1s,3S)-3-(trifluoromethoxy)cyclobutyl]oxy}acetamido)bicyclo[1.1.1]pentan-1-yl]-6-(trifluoromethyl)-3,4-dihydro-2H-1-benzopyran-2-carboxamide]	> 8.00
O=C(NC12CC(n3cc(OCCCC(F)(F)F)cn3)(C1)C2)[C@H]1C[C@@H](O)c2cc(C(F)(F)F)c(F)cc2O1 [Compound 641, (2R,4R)-7-fluoro-4-hydroxy-N-{3-[4-(4,4,4-trifluorobutoxy)-1H-pyrazol-1-yl]bicyclo[1.1.1]pentan-1-yl}-6-(trifluoromethyl)-3,4-dihydro-2H-1-benzopyran-2-carboxamide]	> 8.00
O=C(CO[C@H]1C[C@@H](OC(F)(F)F)C1)N[C@H]1C[C@H]2C[C@@H]1C[C@@H]2NC(=O)[C@@H]1C[C@@H](O)c2cc(Cl)ccc2O1 [Compound 388, (2S,4R)-6-chloro-4-hydroxy-N-[(1R,2S,4R,5S)-5-(2-{[cis-3-(trifluoromethoxy)cyclobutyl]oxy}acetamido)bicyclo[2.2.1]heptan-2-yl]-3,4-dihydro-2H-1-benzopyran-2-carboxamide]	6.60 to 7.30
O=C(NC12CC(n3cc(OCCOC(F)(F)F)cn3)(C1)C2)[C@H]1C[C@@H](O)c2cc(C(F)(F)F)ccc2O1 [Compound 424, (2R,4R)-4-hydroxy-N-(3-{4-[2-(trifluoromethoxy)ethoxy]-1H-pyrazol-1-yl}bicyclo[1.1.1]pentan-1-yl)-6-(trifluoromethyl)-3,4-dihydro-2H-1-benzopyran-2-carboxamide]	> 8.00
O=C(NC12CCC(n3cc(OCCCOC(F)(F)F)cn3)(C1)C2)[C@H]1C[C@@H](O)c2cc(Cl)c(F)cc2O1 [Compound 629, (2R,4R)-6-chloro-7-fluoro-4-hydroxy-N-(4-{4-[3-(trifluoromethoxy)propoxy]-1H-pyrazol-1-yl}bicyclo[2.1.1]hexan-1-yl)-3,4-dihydro-2H-1-benzopyran-2-carboxamide]	7.30 to 8.00
O=C(COc1ccc(Cl)c(F)c1)NC12CC(n3cc([C@H]4C[C@@H](OC(F)(F)F)C4)nn3)(C1)C2 [Compound 620, 2-(4-chloro-3-fluorophenoxy)-N-(3-{4-[(1s,3s)-3-(trifluoromethoxy)cyclobutyl]-1H-1,2,3-triazol-1-yl}bicyclo[1.1.1]pentan-1-yl)acetamide]	> 8.00
O=C(COc1ccc(Cl)c(F)c1)NC12CC(c3ccc(C(=O)N4CC(OCC(F)(F)F)C4)nc3)(C1)C2 [Compound 601, 2-(4-chloro-3-fluorophenoxy)-N-(3-{6-[3-(2,2,2-trifluoroethoxy)azetidine-1-carbonyl]pyridin-3-yl}bicyclo[1.1.1]pentan-1-yl)acetamide]	7.30 to 8.00
O=C(COc1ccc(Cl)cc1O)NC12CC(n3cc([C@H]4C[C@@H](OC(F)(F)F)C4)nn3)(C1)C2 [Compound 618, 2-(4-chloro-2-hydroxyphenoxy)-N-(3-{4-[(1s,3s)-3-(trifluoromethoxy)cyclobutyl]-1H-1,2,3-triazol-1-yl}bicyclo[1.1.1]pentan-1-yl)acetamide]	7.30 to 8.00
